According to patent US4529602A, “Method for treatment or prophylaxis of gastro-intestinal disease” (priority 1981, dated 1985):
Where a name gives a salt, the structure may show the parent alone.

Columns and labels:
[1] = tested on: urinary electrolytes; assay: Effect on urinary electrolytes (Experiment 8); assay type: in vivo, Male SD-strain rats; conditions: for Urine volume: 4 h, control 5.7 ± 0.6; for Na/K ratio: 4 h urine, control 6.1 ± 0.3
Description: Male SD-strain rats (6 to 7 weeks old, one group: 5-8 rats) were starved overnight, and a physiological saline solution (3 ml/100 g of body weight) was orally administered to the rats. One hour later, a solution of a test compound in a 0.25% CMC-physiological saline solution was administered orally to the rats in an amount of 3 ml per 100 g of body weight (Dose: 50, 500 or 1,000 mg/kg). Immediately after administration of the test compound, the rats were placed into metabolic cages (one rat per cage) and deprived of water and food for 4 hours. The urine samples which were excreted during a 4 hour period were collected. Sodium and potassium in the urine were estimated by a flame photometer (Hitachi Model-205).

[2] = tested on: mineralo-corticoid- or aldosterone-like effect; conditions: in vivo; cited from earlier work
[3] = tested on: experimentally-induced gastric ulceration; conditions: in words, known; cited from earlier work
[4] = tested on: urinary electrolytes; assay: Effect on urine volume and urinary electrolytes (Experiment 7); assay type: in vivo, Male SD-strain rats; conditions: 50 mg/kg oral
Description: Male SD-strain rats (6 to 7 weeks old) were starved overnight, and a physiological saline solution (3 ml/100 g of body weight) was orally administered to the rats. One hour later, a solution or suspension of a test compound in a 0.25% CMC-physiological saline solution was administered orally to the rats in an amount of 3 ml per 100 g of body weight (Dose: 50 and 500 mg/kg). Immediately after administration of the test compound, the rats were placed into metabolic cages (2 rats per cage) and deprived of water and food for 5 hours. The urine samples which were excreted during a 5 hour period were collected. Sodium and potassium in the urine were estimated by a flame photometer (Hitachi Model-205).

[5] = tested on: Shay rat ulcers; assay: Effect on Shay rat ulcers (pylorus-ligated); assay type: in vivo, Male SD-strain rats; conditions: 17 h
Description: Male SD-strain rats (6 to 7 weeks old) were starved for 48 hours and then the pylori were ligated. Immediately after ligation, a solution or suspension of a test compound in distilled water was administered orally into the stomachs in an amount of 0.2 ml per 100 g of body weight (Dose: 200 or 300 mg/kg). Seventeen hours after the administration of the test compound, the degree of ulceration in forestomach was examined according to the method of Takagi et al (Chem. Pharm. Bull., 11(10), pp. 1282-1290 (1963)) with a modified scoring system. Depending on the diameter of each lesions, the ulcers were classified into the following 4 grades. Ulcer index was calculated by the sum of the number of ulcers in each degree multiplied by respective ulcer score. Further, based on the ulcer index determined above, the preventive effect of the test compound on Shay rat ulcer was calculated by the following formula: [formula] (Results)

[6] = tested on: human gastric ulcer; conditions: in words, numerous clinical trials; cited from earlier work
[7] = tested on: gastric acid secretion; assay: Preventive effect on gastric acid secretion in pylorus-ligated rats; assay type: in vivo, Male SD-strain rats; conditions: 100 mg/kg oral, 5 h after administration, hydrate
Description: (§1) Preventive effect on acid and pepsin secretions
(§2) Male SD-strain rats (6 to 7 weeks old) were starved for 48 hours, and then the pylori were ligated. Immediately after ligation, a solution or suspension of a test compound in distilled water was administered orally into the stomachs in an amount of 0.2 ml per 100 g of body weight (Dose: 100 mg/kg). Five hours after said administration of the test compound, the rats were sacrificed and the stomachs were removed. The gastric contents were centrifuged at 2,500 rpm for 10 minutes and the gastric juice was collected as the supernatant. The concentration of pepsin in the gastric juice was determined by Anson's method (c.f., J. Gen. Physiol., 22, pp. 77-89 (1938)) using hemoglobin as the substrate, and the preventive effect of the test compound on the pepsin secretion was estimated in terms of "decrease in pepsin concentration" according to the following formula: [formula]
On the other hand, the concentration of free acid in the gastric juice was determined by titrating said gastric juice to pH 7.0 with 0.1N NaOH, and the preventive effect of the test compound on the gastric acid secretion was estimated in terms of "the decrease in acidity of gastric juice" according to the following formula: [formula] (Results)

[8] = tested on: gastric mucus secretion; assay: Effect on gastric mucus secretion (alcian blue binding); assay type: in vivo, Male Sprague-Dawley rats; conditions: 100 mg/kg oral, 1 h, hydrate
Description: Stimulating effect of a test compound on gastric mucus secretion was examined by the method of Corne et al. (J. Physiol., 242, pp. 116-117(1974); J. Pharm. Pharmacol., 33, pp. 348-352(1981)). Male Sprague-Dawley rats (6-7 weeks old; one group: 6 rats) were fasted for 20 hours before the experiments. Water was given ad libitum and coprophagy was prevented by using cages with wide-mesh floors. A test compound dissolved or suspended in distilled water was administered orally to the rats at a dose of 100 mg/kg. One hour after the administration of the test compound, the stomachs were dissected, opened along the greater curvature, rinsed in ice-cold 0.25M sucrose, and the rumen was discarded. Then, the stomachs were incubated in 10 ml of a 0.15M sucrose-0.05M sodium acetate solution (pH 5.8) containing alcian blue (1 mg/ml), at room temperature for 1.5 hours. Finally, the stomachs were placed in 15 ml of a 0.5M magnesium chloride solution for 2 hours with occasional shaking and then removed, and the magnesium chloride solution was shaken briefly with 10 ml of diethyl ether. The optical density of the aqueous layer was read at 605 nm, and the degree of alcian blue binding was expressed as μg alcian blue/g of tissue. The stimulating effect of the test compound on gastric mucus secretion was estimated in terms of "the increase in alcian blue binding" which was calculated by the following formula: [formula] (Results)

[9] = tested on: stress-induced ulcers; assay: Effect on stress-induced ulcers; assay type: in vivo, Male ddY-strain mice; conditions: 100 mg/kg oral, 16 h water immersion
Description: Male ddY-strain mice (4 weeks old) weighing about 20 g were starved for about 7 hours. A solution of a test compound in distilled water was administered orally to the mice in an amount of 0.1 ml per 10 g of body weight (Dose: 100 mg/kg). Immediately after administration of the test compound, the mice were placed in a stress cage and immersed to the level of the cervix in a water bath (24±0.5° C.) for 16 hours. Then, the stomach was removed and slightly inflated by injecting 1.2 ml of a 1% formalin solution to fix the inner layers of the gastric walls. The stomach was then incised along the greater carvature, and the number of ulcerations was examined.

[10] = tested on: pepsin secretion; assay: Preventive effect on pepsin secretion in pylorus-ligated rats; assay type: in vivo, Male SD-strain rats; conditions: 100 mg/kg oral, 5 h after administration, hydrate
Description: as §1, §2

[11] = tested on: rats; assay: Acute oral toxicity in rats (Experiment 10); assay type: in vivo; conditions: male SD-strain rats, 7 days, hydrate, 10080 min
Description: After male SD-strain rats (6-7 weeks old) were starved for 20 hours, a solution or suspension of a test compound in distilled water was administered orally to the rats in an amount of one ml per 100 g of body weight. After administration of the test compound, the rats were allowed free access to water and food.

[12] = tested on: aspirin-induced ulcers; assay: Effect on aspirin-induced ulcers; assay type: in vivo, Male Donryu-strain rats; conditions: p.o. 2 m mol./kg (847 mg/kg); aspirin 200 mg/kg
Description: Male Donryu-strain rats (8 to 9 weeks old) were starved overnight, and a solution or suspension of a test compound in distilled water was administered orally into the stomachs in an amount of one ml per 100 g of body weight. Half an hour later, a suspension of aspirin in 0.25% CMC solution was administered orally to the rats in an amount of 0.5 ml per 100 g of body weight (Dose: 200 mg/kg). Four hours after the administration of aspirin, the rats were sacrificed and the stomachs were removed and inflated by injecting 10 ml of 1% formalin solution to fix the inner layers of the gastric walls. The stomach was then incised along the greater curvature and the lengths of the lesions were measured and summated to give ulcer index (in mm) for each animal. The preventive effect of the test compound on aspirin-induced ulcers were calculated by the following formula: [formula] (Results)

[13] = tested on: gastric mucous membrane; assay: Protective effect on gastric mucous membrane (excised stomach in artificial gastric juice); design: species or system Male Sprague-Dawley rats; conditions: 37° C., 60 min, hydrate; for Amount of tyrosine: control 2.42 ± 0.15
Description: Protective effect of a test compound on gastric mucous membrane was examined by the method of Diago et al. (Yakugaku Zasshi, 101, 452-457(1981)). Male Sprague-Dawley rats (6-7 weeks old; one group: 5 rats) were fasted for 20 hours before the experiments. Water was given ad libitum and coprophagy was prevented by using cages with wide-mesh floors. The stomach was excised, opened along the greater curvature, rinsed in physiological saline solution, and the rumen was discarded. The stomach was incubated in 10 ml of an artificial gastric juice (100 mM HCl, 0.3% pepsin, 0.2% NaCl) containing a test compound, at 37° C. for 60 minutes. After the incubation, 2 ml of 7% trichloroacetic acid were added to 0.5 ml of medium, and the mixture was centrifuged. The amount of tyrosine in the supernatant was measured by using Folin-Ciocelteu reagent (J. gen. Physiol., 16, 59-63(1932)), and expressed as mg tyrosine/g tissue. The protective effect of the test compound on gastric mucous membrane was estimated in terms of "the inhibition of digestion of mucous membrane" which was calculated by the following formula: [formula] (Results)

[14] = 1 mg/ml in artificial gastric juice
[15] = 4 mg/ml in artificial gastric juice

SMILES: CC1(C)[C@@H](OC(=O)CCC(=O)O)CC[C@]2(C)[C@H]3C(=O)C=C4[C@@H]5C[C@@](C)(C(=O)O)CC[C@]5(C)CC[C@@]4(C)[C@]3(C)CC[C@@H]12 [Carbenoxolone disodium salt, 3-β-hydroxy-11-oxoolean-12-en-30-oic acid hydrogen succinate, reference compound]
- Urine volume ([1]; 50 mg/kg p.o.): 5.2 ± 0.3 mL
- Na/K ratio ([1]; 50 mg/kg p.o., * = significantly different (p < 0.01) from control): 3.7 ± 0.3
- aldosterone-like side effect [2]: has an aldosterone-like side effect
- protection from experimentally-induced gastric ulceration [3]: known to protect animals from experimentally-induced gastric ulceration
- Urine volume ([4]; 5 h, 2 rats per cage, control 12.3): 9.3 mL
- Na/K ([4]; 5 h urine, control 5.8): 3.2
- Preventive effect on Shay rat ulcers ([5]; 300 mg/kg oral): 40%
- gastric anti-ulcer effect in human gastric ulcer patients [6]: effective gastric anti-ulcer agent

SMILES: CC(C)c1cc2c(cc1S(=O)(=O)O)[C@@]1(C)CCC[C@@](C)(C(=O)O)[C@@H]1CC2 [Sulfodehydroabietic acid disodium salt, 1,4a-dimethyl-1-carboxy-6-sulfo-7-isopropyl-1,2,3,4,4a,9,10,10a-octahydro-phenanthrene disodium salt 81/2 hydrate]
- Decrease (%) in acidity of gastric juice [7]: 54%
- Urine volume ([1]; 500 mg/kg p.o.): 4.8 ± 0.4 mL
- Na/K ratio ([1]; 500 mg/kg p.o.): 7.4 ± 1.0
- Urine volume ([1]; 1000 mg/kg p.o.): 4.3 ± 0.3 mL
- Na/K ratio ([1]; 1000 mg/kg p.o.): 5.9 ± 0.4
- Alcian blue binding ([8]; control (water) 198.5 ± 6.4): 247.7 ± 18.4 μg/g tissue
- Increase (%) in alcian blue binding [8]: 25%
- decrease in the number of stress-induced ulcers [9]: 22%
- Decrease (%) in pepsin concentration [10]: 92%
- LD50 [11]: > 2000 mg/kg
- Preventive effect on Shay rat ulcers ([5]; 200 mg/kg oral, hydrate): 93%
- Preventive effect on aspirin-induced ulcers [12]: 82%
- Amount of tyrosine [13, 14]: 1.64 ± 0.12 mg/g tissue
- Inhibition (%) of digestion of mucous membrane [13, 14]: 32%
- Amount of tyrosine [13, 15]: 0.82 ± 0.07 mg/g tissue
- Inhibition (%) of digestion of mucous membrane [13, 15]: 66%
